Measured values reported in the supplement of paper PMC11208160.

Assay: recombinant barcode read abundance after kanamycin selection (control-corrected) (log10(CPM+1)); higher = more efficient recombination; sequences stand for … in AGTGCAGAGAAAATCGGCCAGTTTTCTCTGCCTGCAGTCCGCATGCCGT…AGATTTATGCAGCGGACTGCCTTTCTCCCAAAGTGATAAACCGGACAGTATCATGGACCGGTTTTCCCGGTAATCCGTATTTGCAAGGTTGGTTTCACT; site = the 11-nt target
Outline: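 Targets and IS621 bridge RNA target-binding loops were paired in oligos, each with a promoter, a barcode and the J23119-driven first 104 bridge RNA bases. A vector carrying the remaining 73 bp and a T7-inducible recombinase received these by Gibson cloning, and the pool was co-electroporated into E. coli with a donor plasmid. Duplicate plates contained chloramphenicol/ampicillin LB agar (control) or chloramphenicol/ampicillin/kanamycin with 0.1 mM IPTG. Recombination efficiency comes from averaged, control-corrected counts per million of recombinant-junction barcodes, reported as log10(CPM+1).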
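Also: IS621 recombinase and bridge RNA in Escherichia coli cells.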

Sequence	recombinant barcode read abundance (log10)
CTACAATCTTGGGTTCTAACCTGTTGCAT (site CTACAATCTAT)	1.51
CTACAATCTTGGGTTCTAACCTGTTGCTT (site CTACAATCTAA)	1.17
CTACAATCTTGGGTTCTAACCTGTTGCTT (site CTACAATCTAT)	0.816
CTACACCCTTGGGTTCTAACCTGTTGCTT (site CTACAACCTAA)	0.0455
CTACACCCTTGGGTTCTAACCTGTTGCTT (site CTACACCCTAA)	1.39
CTACACCCTTGGGTTCTAACCTGTTGCTT (site CTACAGCCTAA)	0.296
CTACACCCTTGGGTTCTAACCTGTTGCTT (site CTACATCCTAA)	0.22
CTACAGGCTTGGGTTCTAACCTGTTGCAC (site CTACAGGCTGT)	1
CTACAGGCTTGGGTTCTAACCTGTTGCAC (site GAGTCTTCTTG)	0.165
CTACCACCTTGGGTTCTAACCTGTTGCCT (site CTACCAACTAG)	0.16
CTACCACCTTGGGTTCTAACCTGTTGCCT (site CTACCACCTAG)	1.8
CTACCACCTTGGGTTCTAACCTGTTGCCT (site CTACCAGCTAG)	0.0722
CTACCACCTTGGGTTCTAACCTGTTGCCT (site CTACCATCTAG)	0.214
CTACCATCTTGGGTTCTAACCTGTTGCCT (site CTACCAACTAG)	0.0518
CTACCATCTTGGGTTCTAACCTGTTGCCT (site CTACCACCTAG)	0.0894
CTACCATCTTGGGTTCTAACCTGTTGCCT (site CTACCAGCTAG)	0.278
CTACCATCTTGGGTTCTAACCTGTTGCCT (site CTACCATCTAG)	0.948
CTACCGTCTTGGGTTCTAACCTGTTGCGG (site CTACCATCTCG)	0.285
CTACCGTCTTGGGTTCTAACCTGTTGCGG (site CTACCGTCTCC)	1.97
CTACCTCCTTGGGTTCTAACCTGTTGCGT (site CTACCTCCTAC)	1.16
CTACCTCCTTGGGTTCTAACCTGTTGCGT (site CTACTTCCTAC)	0.37
CTACGAACTTGGGTTCTAACCTGTTGCTG (site CTACGAACTCA)	1.53

Sequence	recombinant barcode read abundance (log10)
CTACGAACTTGGGTTCTAACCTGTTGCTG (site CTACGCACTCA)	0.167
CTACGAACTTGGGTTCTAACCTGTTGCTG (site CTACGGACTCA)	0.102
CTACGAACTTGGGTTCTAACCTGTTGCTG (site CTACGTACTCA)	0.142
CTACGTCCTTGGGTTCTAACCTGTTGCTG (site CTACGTCCTAA)	0.0384
CTACGTCCTTGGGTTCTAACCTGTTGCTG (site CTACGTCCTCA)	1.64
CTACGTCCTTGGGTTCTAACCTGTTGCTG (site CTACGTCCTGA)	0.203
CTACGTCCTTGGGTTCTAACCTGTTGCTG (site CTACGTCCTTA)	0.0883
CTACGTCCTTGGGTTCTAACCTGTTGCTT (site CTACGTCCTAA)	1.04
CTACGTCCTTGGGTTCTAACCTGTTGCTT (site CTACGTCCTCA)	0.14
CTACGTCCTTGGGTTCTAACCTGTTGCTT (site CTACGTCCTGA)	0.297
CTACGTCCTTGGGTTCTAACCTGTTGCTT (site CTACGTCCTTA)	0.0433
CTACGTTCTTGGGTTCTAACCTGTTGCCT (site CCACGTTCTAG)	0.761
CTACGTTCTTGGGTTCTAACCTGTTGCCT (site CTACGTTCTAG)	1.05
CTACTAACTTGGGTTCTAACCTGTTGCAT (site CTACTAACTAA)	0.173
CTACTAACTTGGGTTCTAACCTGTTGCAT (site CTACTAACTAC)	0.149
CTACTAACTTGGGTTCTAACCTGTTGCAT (site CTACTAACTAG)	0.268
CTACTAACTTGGGTTCTAACCTGTTGCAT (site CTACTAACTAT)	1.34
CTACTAACTTGGGTTCTAACCTGTTGCTT (site CTACTAACTAA)	0.316
CTACTAACTTGGGTTCTAACCTGTTGCTT (site CTACTAACTAC)	0.0509
CTACTAACTTGGGTTCTAACCTGTTGCTT (site CTACTAACTAG)	0.0714
CTACTAACTTGGGTTCTAACCTGTTGCTT (site CTACTAACTAT)	0.0517
CTACTAGCTTGGGTTCTAACCTGTTGCAA (site CTACTAGCTAT)	0.196

Sequence	recombinant barcode read abundance (log10)
CTACTAGCTTGGGTTCTAACCTGTTGCAA (site CTACTAGCTCT)	0.617
CTACTAGCTTGGGTTCTAACCTGTTGCAA (site CTACTAGCTGT)	0.0288
CTACTAGCTTGGGTTCTAACCTGTTGCAA (site CTACTAGCTTT)	1.25
CTAGACACTTGGGTTCTAACCTGTTGCGG (site CTAGACACTCC)	2.14
CTAGACACTTGGGTTCTAACCTGTTGCGG (site CTGGTCACTCC)	0.0881
CTAGACCCTTGGGTTCTAACCTGTTGCCT (site ATAGACCCTAG)	0.347
CTAGACCCTTGGGTTCTAACCTGTTGCCT (site CTAGACCCTAG)	1.95
CTAGACCCTTGGGTTCTAACCTGTTGCCT (site GTAGACCCTAG)	0.223
CTAGACCCTTGGGTTCTAACCTGTTGCCT (site TTAGACCCTAG)	0.0677
CTAGACTCTTGGGTTCTAACCTGTTGCTG (site CTAGACTCTAA)	0.136
CTAGACTCTTGGGTTCTAACCTGTTGCTG (site CTAGACTCTCA)	2.73
CTAGACTCTTGGGTTCTAACCTGTTGCTG (site CTAGACTCTGA)	0.076
CTAGACTCTTGGGTTCTAACCTGTTGCTG (site CTAGACTCTTA)	0.188
CTAGCCTCTTGGGTTCTAACCTGTTGCAT (site CTAACCTCTAT)	0.739
CTAGCCTCTTGGGTTCTAACCTGTTGCAT (site CTACCCTCTAT)	0.582
CTAGCCTCTTGGGTTCTAACCTGTTGCAT (site CTAGCCTCTAT)	2.38
CTAGCCTCTTGGGTTCTAACCTGTTGCAT (site CTATCCTCTAT)	0.0542
CTAGCGACTTGGGTTCTAACCTGTTGCTG (site CTAGCCACTTA)	0
CTAGCGACTTGGGTTCTAACCTGTTGCTG (site CTAGCGACTCA)	0.287
CTAGGAGCTTGGGTTCTAACCTGTTGCGT (site CTAGAAGCTAC)	1.84
CTAGGAGCTTGGGTTCTAACCTGTTGCGT (site CTAGGAGCTAC)	2.12
CTAGGATCTTGGGTTCTAACCTGTTGCGT (site CTAGGATCTAC)	2.77
